Each structure is given as a SMILES string.

In this assay the test system is primary rat mixed cortical cells. In words: In vitro myelination assay (MBP positive myelin strands, fold myelin pixels above background). To be noted: Rattus norvegicus, relative to baseline of no added compound; for fold induction at 1 µM: 1.0 μM compound, read-out: Fold myelin pixels above background, 1.0 μM; for fold induction at 10 µM: 10.0 μM compound, read-out: Fold myelin pixels above background, 10.0 μM. It is filed as cell-based. The source says:
In Vitro Myelination Assay
Compounds were screened for their ability to induce myelination using a primary rat mixed cortical cell culture assay, which contains neurons, oligodendrocyte precursor cells, oligodendrocytes, astrocytes and microglia. The assay quantifies myelination by measuring myelin basic protein (MBP) immunofluorescent positive myelin strands from images taken using a Cellomics Array Scan (model Arrayscan VTI HCS Reader) or a Molecular Devices Image Xpress (model IXM XL) high content imager. The myelin strands were quantitated using a custom created myelin detection software program. Test compounds were dissolved in DMSO to make a 10 mM initial stock solution. Dilutions were made in myelination medium to obtain the final solutions for the assay and were tested in primary rat mixed cortical cells at selected doses.
Primary rat mixed cortical cells were prepared from harvested cerebral cortices from postnatal day 1 (P1) rats (P1 Rat CD® IGS pups) were purchased from Charles River) in Complete Dissociation Medium, wherein the meninges were removed and the cortical tissue chopped with a razor blade into ˜1 mm^3 pieces. Tissue from 1-3 pups was collected and placed into 15 ml conical tubes in a total volume of 5 ml of Complete Dissociation Medium. Activated papain (3 ml) was added to each 15 ml conical tube and tissue was incubated at 37° C. for 30 minutes. After the 30 minute incubation, DNase (Sigma D4527; 75 μl of a 1 mg/ml stock) was added to each tube, followed by mechanical trituration using a 2 ml serological pipette and autopipettor to gently dissociate the tissue. Following trituration, larger tissue pieces were allowed to settle by gravity, and the supernatant containing dissociated cells was transferred to a 50 ml conical tube with 4 ml of trypsin inhibitor. Cells were pelleted by centrifugation, resuspended in myelination medium and filtered through a 40 μm filter. Cells were then seeded in 96-well plates (BD Biosciences, Black, PDL-coated, Cat. No. 356640) at 87,500-95,000 cells/well in a final volume of 200 μl of Myelination Medium in the presence or absence of compound and cultured for 14 days in a humidified 37° C. incubator with 5% CO2. Half the medium was removed and replaced with fresh medium containing 1× compound on days 6 and 10. Using a Biotek automatic plate washer (model Biomek® FXP Laboratory Automation Workstation), cells were fixed with 4% paraformaldehyde on day 14, washed with PBS and blocked in 5% normal goat serum (Vector Laboratories, S-1000) in 0.1% PBS-TritonX-100 (PBST) for 1 hour. Cells were stained with 1:500 anti-MBP (Covance, cat # SMI99) primary antibody in 1% normal goat serum in 0.1% PBST for 2 hours at room temperature followed by 2 washes with PBST. A final incubation in secondary antibody (1:1000, Invitrogen, Alexa-488 anti-mouse IgG2b) and 1:10,000 Hoechst dye in 1% normal goat serum in 0.1% PBST was performed for 2 hours at room temperature. Plates were washed with PBS and then scanned on a Cellomics Array Scan using a 10× objective (25 images per well) or the Image Xpress using a 10× objective (9 image per well). Images were analyzed using Vertex myelin detection software (described below) to quantify total MBP myelin pixels per well. Fold myelin pixels above background at two concentrations (1.0 μM and 10.0 μM) relative to baseline of no added compound are reported below in Table 4. Standard deviation for each compound concentration was calculated using all replicates and using a standard deviation formula commonly used in the art.
One of skill in the art would recognize that for this type of primary neuronal mixed cell assay variability between different assay runs is to be expected even though the protocol is the same for each assay run. For instance, variability may be due to small differences in cell viability, cell density, age of the animals, etc.
Vertex Myelin Detection Software: […]

On to `c1ccc(-n2cnc(Nc3cc(C4CCOCC4)cc(C4CCOCC4)c3)n2)cc1` [Compound 10, N-[3,5-di(tetrahydropyran-4-yl)phenyl]-1-phenyl-1,2,4-triazol-3-amine], for which the fold induction at 1 µM lay in the range of 1 to 10 and the fold induction at 10 µM was no more than 1.
As for `Cc1cc(Nc2ncn(-c3ccccc3)n2)cc(N2CCC3(CC2)COC3)c1` [Compound 11, N-[3-methyl-5-(2-oxa-7-azaspiro[3.5]nonan-7-yl)phenyl]-1-phenyl-1,2,4-triazol-3-amine], the fold induction at 1 µM is 1000 to 10000 and the fold induction at 10 µM is 1000 to 10000.
As to `COC(=O)N1CCC(c2cc(C)cc(Nc3ncn(-c4ccccc4)n3)c2)CC1` [Compound 12, methyl 4-[3-methyl-5-[(1-phenyl-1,2,4-triazol-3-yl)amino]phenyl]piperidine-1-carboxylate], the fold induction at 1 µM lay within 100 to 1000 and the fold induction at 10 µM lay in the range of 1 to 10.
As to `CN1CCN(c2cc(Nc3ncn(-c4ccncc4)n3)cc(C(F)(F)F)c2)CC1` [Compound 13, N-[3-(4-methylpiperazin-1-yl)-5-(trifluoromethyl)phenyl]-1-(4-pyridyl)-1,2,4-triazol-3-amine], the fold induction at 1 µM lay in the range of 100 to 1000 and the fold induction at 10 µM was no more than 1.
The corresponding values for `CCc1cc(Nc2ncn(-c3ccc(F)cc3)n2)cc(N2CCN(C3COC3)CC2)c1` [Compound 14, N-[3-ethyl-5-[4-(oxetan-3-yl)piperazin-1-yl]phenyl]-1-(4-fluorophenyl)-1,2,4-triazol-3-amine] are 1000 to 10000 and no more than 1.
The corresponding values for `CCc1cc(Nc2ncn(-c3cccc(F)c3)n2)cc(N2CC(N3CCOCC3)C2)c1` [Compound 15, N-[3-ethyl-5-(3-morpholinoazetidin-1-yl)phenyl]-1-(3-fluorophenyl)-1,2,4-triazol-3-amine] are 100 to 1000 and 10 to 100.
Consider `CCc1cc(Nc2ncn(-c3ccnc(F)c3)n2)cc(N2CCN(C3COC3)CC2)c1` [Compound 16, N-[3-ethyl-5-[4-(oxetan-3-yl)piperazin-1-yl]phenyl]-1-(2-fluoro-4-pyridyl)-1,2,4-triazol-3-amine], for which the fold induction at 1 µM lay within 100 to 1000 and the fold induction at 10 µM was in the range of 10 to 100.
The corresponding values for `CC(C)(C)c1cc(Nc2ncn(-c3cc(F)cc(F)c3)n2)cc(N2CCN(C3COC3)CC2)c1` [Compound 17, N-[3-tert-butyl-5-[4-(oxetan-3-yl)piperazin-1-yl]phenyl]-1-(3,5-difluorophenyl)-1,2,4-triazol-3-amine] are 100 to 1000 and no more than 1.
Consider `Cc1cc(Nc2ncn(-c3ccccc3)n2)cc(C2(F)CCN(C3COC3)C2)c1` (stereo not shown) [Compound 18, N-[3-[3-fluoro-1-(oxetan-3-yl)pyrrolidin-3-yl]-5-methyl-phenyl]-1-phenyl-1,2,4-triazol-3-amine], for which the fold induction at 1 µM was in the range of 1000 to 10000 and the fold induction at 10 µM was 1 to 10.
Turning to `Cc1cc(Nc2ncn(-c3cc(F)cc(F)c3)n2)cc(N2CCn3ccnc3C2)c1` [Compound 19, 1-(3,5-difluorophenyl)-N-[3-(6,8-dihydro-5H-imidazo[1,2-a]pyrazin-7-yl)-5-methyl-phenyl]-1,2,4-triazol-3-amine], the fold induction at 1 µM was in the range of 10 to 100 and the fold induction at 10 µM lay within 1 to 10.
Taken in the same sequence, the figures for `Cc1cc(Nc2ncn(-c3cnccn3)n2)cc(N2CCN(C3CC3)CC2)c1` [Compound 20, N-[3-(4-cyclopropylpiperazin-1-yl)-5-methyl-phenyl]-1-pyrazin-2-yl-1,2,4-triazol-3-amine] were 10 to 100 and 100 to 1000.
With `Cc1cc(Nc2ncn(-c3ccccc3)n2)cc(N2CC(C)NCC2C)c1` (stereo not shown) [Compound 21, N-[3-(2,5-dimethylpiperazin-1-yl)-5-methyl-phenyl]-1-phenyl-1,2,4-triazol-3-amine], the fold induction at 1 µM lay within 10 to 100 and the fold induction at 10 µM is no more than 1.
Taken in the same sequence, the figures for `COc1ccc(-n2cnc(Nc3cc(C4CC4)nc(N4CCC(C)CC4)c3)n2)cc1OC` [Compound 22, 2-cyclopropyl-N-[1-(3,4-dimethoxyphenyl)-1,2,4-triazol-3-yl]-6-(4-methyl-1-piperidyl)pyridin-4-amine] were 100 to 1000 and 100 to 1000.
On to `Cc1cc(Nc2ncn(-c3cc(F)cc(F)c3)n2)cc(C2(F)CCN(C)C2)c1` (stereo not shown) [Compound 23, 1-(3,5-difluorophenyl)-N-[3-(3-fluoro-1-methyl-pyrrolidin-3-yl)-5-methyl-phenyl]-1,2,4-triazol-3-amine], for which the fold induction at 1 µM lay within 10 to 100 and the fold induction at 10 µM lay in the range of 10 to 100.
In the case of `Cc1cc(Nc2ncn(-c3cncc(F)c3)n2)cc(N2CCN(C3COC3)CC2)c1` [Compound 24, 1-(5-fluoro-3-pyridyl)-N-[3-methyl-5-[4-(oxetan-3-yl)piperazin-1-yl]phenyl]-1,2,4-triazol-3-amine], the fold induction at 1 µM was in the range of 10 to 100 and the fold induction at 10 µM lay within 100 to 1000.
On to `Cc1cc(Nc2ncn(-c3cc(F)cc(F)c3)n2)cc(C2CCN(C3COC3)C2)c1` (stereo not shown) [Compound 25, 1-(3,5-difluorophenyl)-N-[3-methyl-5-[1-(oxetan-3-yl)pyrrolidin-3-yl]phenyl]-1,2,4-triazol-3-amine], for which the fold induction at 1 µM fell in the range of 1000 to 10000 and the fold induction at 10 µM lay in the range of 1000 to 10000.
For the molecule `FC(F)c1cc(Nc2ncn(-c3ccccc3)n2)cc(N2CCN(C3COC3)CC2)c1` [Compound 26, N-[3-(difluoromethyl)-5-[4-(oxetan-3-yl)piperazin-1-yl]phenyl]-1-phenyl-1,2,4-triazol-3-amine], the fold induction at 1 µM is 100 to 1000 and the fold induction at 10 µM is no more than 1.
Taken in the same sequence, the figures for `Cc1cc(Nc2ncn(-c3cccc(F)c3)n2)cc(N2CCOCC2)c1` [Compound 27, 1-(3-fluorophenyl)-N-(3-methyl-5-morpholino-phenyl)-1,2,4-triazol-3-amine] were 1000 to 10000 and 100 to 1000.
Taken in the same sequence, the figures for `CN1CCCN(c2cc(F)cc(Nc3ncn(-c4ccc(F)cc4F)n3)c2)CC1` [Compound 28, 1-(2,4-difluorophenyl)-N-[3-fluoro-5-(4-methyl-1,4-diazepan-1-yl)phenyl]-1,2,4-triazol-3-amine] were no more than 1 and no more than 1.
With `Cc1cc(Nc2ncn(-c3cc(F)cc(F)c3)n2)cc(N2CC(CC(C)C)N3CCC[C@@H]3C2)c1` (stereo partly drawn) [Compound 29, N-[3-[(8aR)-4-isobutyl-3,4,6,7,8,8a-hexahydro-1H-pyrrolo[1,2-a]pyrazin-2-yl]-5-methyl-phenyl]-1-(3,5-difluorophenyl)-1,2,4-triazol-3-amine], the fold induction at 1 µM was no more than 1 and the fold induction at 10 µM was no more than 1.
In the case of `COc1nccc(-n2cnc(Nc3cc(C)cc(N4CCN(C5COC5)CC4)c3)n2)n1` [Compound 30, 1-(2-methoxypyrimidin-4-yl)-N-[3-methyl-5-[4-(oxetan-3-yl)piperazin-1-yl]phenyl]-1,2,4-triazol-3-amine], the fold induction at 1 µM is no more than 1 and the fold induction at 10 µM is 100 to 1000.
Taken in the same sequence, the figures for `CCc1cc(Nc2ncn(-c3ccc(C)cc3)n2)cc(N2CCN(C3COC3)CC2)c1` [Compound 31, N-[3-ethyl-5-[4-(oxetan-3-yl)piperazin-1-yl]phenyl]-1-(p-tolyl)-1,2,4-triazol-3-amine] were 100 to 1000 and 100 to 1000.
On to `Cc1cc(Nc2ncn(-c3cc(F)cc(Cl)c3)n2)cc(N2CCN(C3COC3)CC2)c1` [Compound 32, 1-(3-chloro-5-fluoro-phenyl)-N-[3-methyl-5-[4-(oxetan-3-yl)piperazin-1-yl]phenyl]-1,2,4-triazol-3-amine], for which the fold induction at 1 µM lay in the range of 1000 to 10000 and the fold induction at 10 µM lay in the range of 100 to 1000.

For the origin of these results see patent US10766869B2, “Triazoles for the treatment of demyelinating dieases” (Vertex Pharmaceuticals Incorporated, priority 2015, dated 2020).
